Measurements as given in patent US20040166092A1, “Use of viral vectors and charged molecules for gene therapy” (priority 1999, published 2004).

Key:
[1] = test system: CT-26 cells; assay: CT-26 morphology and cell growth in culture; assay type: cell-based; details: 72 hours
Experimental: To better understand the in vivo effects of dextran sulfate or dextran in combination with HSV, the effects of dextran sulfate on cell morphology and cell proliferation were evaluated in a cell culture model. CT-26 cells were treated with 100 μg/ml of dextran sulfate or were left untreated. After 48 hours, cell numbers and morphology were examined (FIG. 15). […] In the presence of dextran sulfate, CT-26 cells appeared more evenly spread across tissue culture dishes (panel B) as compared to the “clumped” appearance of CT-26 cells in the absence of dextran sulfate (panel A).
The effect of dextran sulfate, acyclovir, or a combination of both dextran and acyclovir were also examined for their effects on cell growth in vitro. Cultured CT-26 cells were administered dextran sulfate (100 μg/ml), acyclovir (2 mg/ml), both dextran sulfate and acyclovir, or were left untreated (control). CT-26 cells were counted at various time points following addition each formulation.

[2] = test system: CT-26 flank tumors; assay: CT-26 flank tumor model; assay type: in vivo, mouse; details: acyclovir 2 mg/ml with dextran sulfate 100 μg/ml and 1×10^7 pfu NV1020
Experimental: Different modes of delivery were also examined to determine the efficacy of systemic delivery of HSV on tumor growth. Flank tumors were established in mice by subcutaneous injection of CT-26 cancer cells. The mice were then administered 1×10^7 pfu of NV1020 either intratumorally or systemically by tail vein. Tumor growth rates were then assessed by measuring the tumor volume biweekly (FIG. 8).
Mice were anesthetized using ketamine (70 mg/kg) and xylazine (10 mg/kg). CT-26 cells (5×10^4 cells resuspended in 100 μl of PBS) were injected subcutaneously into the right flank of each mouse, using a 26-gauge needle. The cells formed a tumor, which was allowed to grow to a size of approximately 100 to 150 mm^3. Injections of the desired therapy were then initiated. Tumor volumes were generally measured biweekly. The animals were sacrificed once the tumor volume reached 1500 mm^3.
Tail vein administration of the desired therapy was carried out using techniques commonly known in the art.

In the case of `Nc1nc2c(ncn2COCCO)c(=O)[nH]1` [acyclovir], the “growth of the cells (number of cells/ml) compared to untreated cells” value ([1]; acyclovir 2 mg/ml together with dextran sulfate 100 μg/ml) is reported as “did not vary significantly”, the “growth of the cells (number of cells/ml) compared to untreated cells” value ([1]; acyclovir 2 mg/ml) is reported as “did not vary significantly” and the tumor growth [2] is reported as “reduced tumor growth”.
